Experiment [1] is described as follows: ABTS assay of coumarins' antioxidant activity. It is filed as physicochemical. Particulars: absorbance at 734 nm, 7 minutes at 37° C., compared to scopoletin, scopolin, umbelliferone, ascorbic acid and Trolox. On the procedure: Antioxidant activity of scoparone was determined in an 2,2′-azinobis-(3-ethylbenzothiazoline-6-sulfonic acid) (ABTS)-assay and compared to authentic analytical standards of scopoletin, scopolin, umbelliferone, ascorbic acid and Trolox (6-hydroxy-2,5,7,8-tetramethylchroman-2-carboxylic acid).
The 2,2′-azinobis-(3-ethylbenzothiazoline-6-sulfonic acid (ABTS)-assay10 was applied to compare the antioxidant activity of different coumarins to Trolox and ascorbic acid as references. The radical monocation of ABTS (ABTS·+) was generated by oxidation of ABTS with potassium persulfate (K2S2O8) This was done by mixing aqueous ABTS (7 mM) and K2S2O8 (2.4 mM) in a 1:1 ratio (v/v). The mixture was placed in the dark and incubated at room temperature for 16 hours and then diluted with ethanol to an absorbance of 0.7 (±0.02) at 734 nm. All solutions were brought to a temperature of 37° C. Next, 990 μl of ABTS·+ was mixed with 10 μl of a test solution containing different concentrations of a coumarin standard. Ascorbic acid and Trolox served as positive and ethanol as the blanc control. Mixtures were incubated at 37° C. in a thermomixer (700 rpm) for 7 minutes. Absorbance at 734 nm was measured in a spectrophotometer following incubation for 7 minutes at 37° C. in a thermomixer (700 rpm).

For experiment [2], the system named is Phakopsora pachyrhizi uredospores. Description: In vitro growth inhibition of Phakopsora pachyrhizi: appressoria formation on glass slides. It is filed as cell-based. On the procedure: FIG. 2 depicts the inhibition of P. pachyrhitzi appressoria formation by scoparone in a concentration-dependent manner. P. pachyrhizi uredospores were resuspended in H2O supplemented with Tween-20 and 10 μM, 25 μM, 50 μM, 100 μM, 200 μM and 400 μM scoparone (solved in 0.1% DMSO) and incubated on glass slides in high humidity conditions. Treatment with 0.1% DMSO and H2O served as controls. The appressoria formation rate was determined by quantitative microscopic analysis. Only spores showing germtube formation with a visible thickening of the germ tube tip were counted as appressoria formation.
Uredospores of P. pachyrhizi (isolate BRO5) were harvested from heavily infected soybean leaves and equally suspended in water by shaking for 25 s at 5′000 rpm on a Precellys 24 homogenizer in the absence of homogenizing beads (Bertin instruments). […] Germination of spores and fungal development was evaluated by counting developing appressoria in the presence of 10-400 μM scoparone (in 0.1% DMSO) and compared to fungal proliferation in presence of H2O or 0.1% DMSO only (controls).
The germination rate and appressoria formation rate was determined by quantitative microscopic analysis. Spores showing a visible germ tube formation but no thickening of the germ tube tip were counted as “germinated”, whereas the presence of a thickened germ tube tip indicated the formation of an appressoria. […]

Entries after “also recorded” stand apart in the source; their conditions may differ.

On to `COc1cc2ccc(=O)oc2cc1OC` [scoparone, 6,7-dimethoxycoumarin], for which the antioxidant activity entry in experiment [1] is given as “lacks antioxidant activity”. In addition, the “formation of appressoria in-vitro” value in experiment [2] (400 μM scoparone) is recorded as “completely abolishes the formation of appressoria”. Further, in experiment [2] (10, 25, 50, 100, 200 and 400 μM scoparone in 0.1% DMSO, spores in H2O with Tween-20 on glass slides, controls 0.1% DMSO and H2O), the appressoria formation rate entry is listed as “inhibiting appressoria formation in a dose dependent manner; also recorded: decreases the formation of appressoria in a dose dependent manner”.
